Source: paper PMC8808171, “Nonselective TRPC channel inhibition and suppression of aminoglycoside-induced premature termination codon readthrough by the small molecule AC1903” (The Journal of Biological Chemistry, 2022)

How the values were obtained:
[1] = molecular target: T1, TRPV4:V4 (Homo sapiens, UniProt Q9HBA0); assay: [Ca2+]i recordings (Fura-2), TRPV4:V4 in CHO cells; assay type: cell-based; settings: activator 4α-PDD
T1 construct: expressed in transfected cells
Protocol: Based on the findings described above, we wondered whether AC1903—which is typically used as a TRPC5 inhibitor at concentrations of 30–100 μM in cellular assays ([29], [56])—might have limited selectivity for TRPC5 channels and whether its effect on intracellular G418 levels and PTC readthrough might be the consequence of inhibition of other or multiple targets. All well-characterized TRPC channel inhibitors reported to date modulate multiple TRP(C) channels ([34], [35], [36]). […] Because limited data for the selectivity of AC1903 are available in the public domain, we decided to profile AC1903 against a selection of calcium-permeable cation channels by intracellular calcium ([Ca^2+]i) recordings using well-characterized cell lines and TRP channel activators ([46], [57], [58]), and the Ca^2+ indicator Fura-2. In these assays, cells (HEK 293, HEK T-REx, or CHO) overexpressing the relevant ion channel protein and loaded with Fura-2 AM (a cell-permeable precursor of Fura-2) were preincubated with various concentrations of AC1903 or vehicle (DMSO) for 30 min. Then, changes in ratiometric fluorescence (from background) were recorded upon addition of the respective ion channel activator. […]

[2] = molecular target: T2, TRPC4 (Homo sapiens, UniProt Q9UBN4); assay: Whole-cell patch-clamp recordings of EA-activated TRPC4 currents in HEK T-REx cells; assay type: cell-based; settings: EA 30 nM
T2 construct: expressed in transfected cells; host or cells: HEK T-REx (tetracycline-induced)
Protocol: B) Representative current–voltage relationship for one (Tet+) HEK T-Rex cell expressing TRPC4, showing current after activation by EA (30 nM) and subsequent inhibition by addition of AC1903 (10 μM). C, quantified data from experiments represented by (A) (scatter plots showing current amplitudes at +100 mV (black circles) or −100 mV (white circles) from three independent experiments; bars represent mean ± SD; n = 3). ∗ indicates statistically significant difference between samples according to paired t test (p < 0.05). EA, (-)-englerin A; TRPC, transient receptor potential canonical.
For electrophysiology experiments, cells were plated at a low density of 20 to 30% onto round coverslips (13 mm diameter or 5 × 5 mm), and TRPC4 expression in HEK T-REx was induced with 1 μg ml^−1 tetracycline 24 h before experimentation. Experiments were carried out at room temperature. […] The patch-clamp currents were recorded using an Axopatch 200B amplifier, digitized by a Digidata 1440 and recorded to a computer using pCLAMP10 (Molecular Devices). The data were filtered at 1 kHz and analyzed offline using Clampfit 10.7 software and Origin 2019b software (OriginLab). […]
Inhibition of G418-induced premature stop codon readthrough […]

T1 sequence (Q9HBA0 whole entry): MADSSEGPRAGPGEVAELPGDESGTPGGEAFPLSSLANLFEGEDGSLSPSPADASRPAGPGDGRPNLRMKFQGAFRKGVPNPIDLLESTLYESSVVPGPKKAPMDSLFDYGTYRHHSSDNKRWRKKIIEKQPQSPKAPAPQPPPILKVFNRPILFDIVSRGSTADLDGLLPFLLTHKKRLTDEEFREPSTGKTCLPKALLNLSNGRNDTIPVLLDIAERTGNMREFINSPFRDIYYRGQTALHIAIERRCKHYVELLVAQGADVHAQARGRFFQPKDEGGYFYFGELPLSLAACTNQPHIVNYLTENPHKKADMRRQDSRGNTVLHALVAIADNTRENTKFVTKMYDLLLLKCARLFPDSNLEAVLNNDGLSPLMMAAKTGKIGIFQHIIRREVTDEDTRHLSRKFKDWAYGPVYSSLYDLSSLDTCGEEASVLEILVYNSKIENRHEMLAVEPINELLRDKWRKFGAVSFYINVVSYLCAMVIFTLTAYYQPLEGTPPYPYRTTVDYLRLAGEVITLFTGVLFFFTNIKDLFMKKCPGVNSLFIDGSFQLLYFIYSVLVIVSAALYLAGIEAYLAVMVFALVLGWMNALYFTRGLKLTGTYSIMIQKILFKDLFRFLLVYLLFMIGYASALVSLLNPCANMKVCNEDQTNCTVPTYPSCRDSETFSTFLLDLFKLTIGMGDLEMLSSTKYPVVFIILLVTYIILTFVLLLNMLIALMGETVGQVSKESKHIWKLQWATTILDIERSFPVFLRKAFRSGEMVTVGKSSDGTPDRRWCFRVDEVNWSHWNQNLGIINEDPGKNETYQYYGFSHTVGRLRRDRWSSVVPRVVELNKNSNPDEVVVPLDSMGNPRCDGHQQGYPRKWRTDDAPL
T2 sequence (Q9UBN4 1-893 isoform Q9UBN4-2): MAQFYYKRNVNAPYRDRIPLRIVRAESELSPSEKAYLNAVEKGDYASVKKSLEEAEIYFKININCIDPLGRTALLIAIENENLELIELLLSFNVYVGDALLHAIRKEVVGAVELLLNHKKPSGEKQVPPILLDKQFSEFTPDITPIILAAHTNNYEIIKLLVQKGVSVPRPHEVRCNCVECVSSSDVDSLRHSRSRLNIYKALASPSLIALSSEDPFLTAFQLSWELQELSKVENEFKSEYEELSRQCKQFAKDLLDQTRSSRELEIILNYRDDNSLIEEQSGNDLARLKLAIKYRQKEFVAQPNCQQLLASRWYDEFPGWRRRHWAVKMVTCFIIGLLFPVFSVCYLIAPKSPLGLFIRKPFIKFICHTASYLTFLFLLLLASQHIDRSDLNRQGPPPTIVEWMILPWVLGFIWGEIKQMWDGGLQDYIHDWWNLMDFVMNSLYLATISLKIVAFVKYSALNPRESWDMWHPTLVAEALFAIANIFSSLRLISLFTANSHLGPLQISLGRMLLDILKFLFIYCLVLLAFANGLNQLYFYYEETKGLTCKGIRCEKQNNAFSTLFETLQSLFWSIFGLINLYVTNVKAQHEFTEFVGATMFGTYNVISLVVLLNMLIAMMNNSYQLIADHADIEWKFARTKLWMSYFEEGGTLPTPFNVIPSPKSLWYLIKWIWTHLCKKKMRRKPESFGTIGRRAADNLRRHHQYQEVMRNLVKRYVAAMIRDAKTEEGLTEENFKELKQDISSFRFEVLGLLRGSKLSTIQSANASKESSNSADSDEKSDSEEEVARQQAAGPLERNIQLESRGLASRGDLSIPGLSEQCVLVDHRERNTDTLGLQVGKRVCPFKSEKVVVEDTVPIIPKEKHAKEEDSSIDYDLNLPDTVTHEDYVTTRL

- IC50 ([1]; CHO): 19 µM
- Hill slope [1]: -1.7
- inhibition of EA-activated currents ([2]; 10 μM AC1903, whole-cell patch clamp): fully and reversibly inhibited
- inhibition of EA-activated TRPC4 currents, cumulative addition ([2]; AC1903 0.3–30 μM): concentration-dependent inhibition
Compound: c1ccc(Cn2c(NCc3ccco3)nc3ccccc32)cc1 [AC1903]
